This passage reports viability, T/C and IC50 results from PubChem BioAssay AID1918991 (Molecular Pharmacology Branch, DTP, NCI, 2023).

For this assay, the system named is 186277-243-T-J2-PDC complex spheroid growth. Put plainly: Anticancer human tumor 186277-243-T-J2-PDC patient-derived colon adenocarcinoma cell line growth inhibition [AhR]. The settings on record: for viability, T/C: stronger effect = lower value; for pIC50: curve of compound. The source says: Multicellular complex tumor spheroid response to aryl hydrocarbon receptor antagonists in combination with a variety of drugs and investigational agents in selected tumor cell lines
The current study was undertaken to assess response to aryl hydrocarbon receptor antagonists in combination with standard-of-care drugs and investigational agents in solid tumor complex spheroid models. Complex spheroids include a stromal component modeled by human endothelial cells (HUVEC) and fibroblasts modeled by human mesenchymal stem cells (MSCs). The concentration ranges selected for each drug and investigational agent were based upon clinically achievable concentrations if the clinical Cmax of the agent was known.
Compounds. The drugs and investigational agents: BAY 2416964 (NSC825713), GNF351 (NSC835774), CH-223191 (NSC835775), CPI-455 (NSC825282), aza-TdCyd (NSC777586), decitabine (NSC127716), belinostat (NSC758774), entinostat (NSC756642), pevonedistat (NSC761192), tazemetostat (NSC777109), talazoparib (NSC765396), olaparib (NSC753686), selinexor (NSC780203), nedisertib (M3814, NSC802822), bortezomib (NSC756655), venetoclax (NSC766270), doxorubicin (NSC123127), elimusertib (BAY189344, NSC800525), ceralasertib (AZD6738, NSC777638), TAK-243 (NSC785004), alisertib (NSC759677), etoposide (NSC141540), topotecan (NSC609699), eribulin (NSC707389), gemcitabine (NSC613327), carboplatin (NSC241240), cisplatin (NSC119875), and SN-38 (NSC673596) were obtained from the National Cancer Institute (NCI) Developmental Therapeutics Program Chemical Repository (32). The FDA-approved anticancer drug set is available from the Developmental Therapeutics Program at https://dtp.cancer.gov/organization/dscb/obtaining/available plates.htm. […] The stock solutions were prepared in dimethyl sulfoxide (DMSO, Sigma-Aldrich, St. Louis, MO, cat. D2650), except for the platinum compounds which were prepared in saline (Quality Biological, Gaithersburg, MD, cat. 114-055-101), at 800-fold the tested concentration and stored at -70 degrees C prior to their use. All drugs and investigational agents were tested over a range starting from a high concentration at or near the clinical Cmax and decreasing in half-log increments. If the clinical Cmax for an agent had not been determined, the highest concentration tested was 10 microM (Table 1).
Cell Culture. All cells were maintained in an incubator at 37 degrees C and 5% CO2 with 95% humidity. The PDC lines were cultured according to standard operating procedures established by the NCI PDMR (https://pdmr.cancer.gov). Briefly, all PDCs were thawed and cultured in Matrigel-coated flasks prepared with a working solution of 1X Ham's F-12 nutrient mix, without supplementation (Invitrogen, Waltham, MA, cat. 11765054), 100 U/mL penicillin-streptomycin (Invitrogen, cat. 15140122), and 2.5% Matrigel (Corning Inc., Corning, NY, cat. 354248) for the first three passages. All PDCs were cultured in complete DMEM/F-12 media containing advanced DMEM/F-12 (Invitrogen, cat. 12634028), 4.9% defined fetal bovine serum, heat inactivated (HyClone Laboratories Inc., Logan, UT, cat. SH30070.03HI), 389 ng/mL hydrocortisone (Sigma-Aldrich, cat. H4001), 9.7 ng/mL human EGF recombinant protein (Invitrogen, cat. PHG0313), 23.4 microg/mL adenine (Sigma-Aldrich, cat. A2786), 97.3 U/mL penicillin-streptomycin (Invitrogen, cat. 15140122), 1.9 mM L-glutamine (Invitrogen, cat. 25030081), and 9.7 microM Y-27632 dihydrochloride (Tocris Bioscience, Bristol, United Kingdom, cat. 1254). The PDCs were cultured in complete DMEM/F12 media without 10 microM Y-27632 dihydrochloride for at least two passages prior to the screen. The established cell lines NCI-H1341 and […] were cultured in DMEM/F-12, HEPES (Invitrogen, cat. 11330032), 5% defined fetal bovine serum (HyClone Laboratories Inc., cat. SH30070.03), ITS premix universal culture supplement [insulin (5 microg/mL), transferrin (5 microg/mL), and selenious acid (5 ng/mL)] […]

pIC50: −log10 of the molar value. Values joined by “and” are separate entries in the source; they are usually repeats but may differ in a detail not shown here. Identical values can stand only once.
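Also: spheroids exposed to compounds for seven days before the viability read.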
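For viability, T/C in this document: luminescent signal used as a stand-in for viable cell amount; 100% = DMSO vehicle control wells.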

As for `CC(C)CC(NC(=O)C(Cc1ccccc1)NC(=O)c1cnccn1)B(O)O` (configuration not stated), the pIC50 is 7.85 and 7.81 and 8.26. For the same compound, the viability, T/C (compound 0.000949 µM) was 106% and 98.7% and 108%. Further, the viability, T/C (compound 0.003 µM) is 96.2% and 116% and 102%. Besides, the viability, T/C (compound 0.03 µM) was 0.39% and 1.22% and 0.15%. Also, the viability, T/C (compound 0.0949 µM) is 0.17% and 1.7% and 0.16%. Moreover, under “compound 0.3 µM”, the viability, T/C is 0.21% (2×) and 1.15%.

`CC1(C)CCC(CN2CCN(c3ccc(C(=O)NS(=O)(=O)c4ccc(NCC5CCOCC5)c([N+](=O)[O-])c4)c(Oc4cnc5[nH]ccc5c4)c3)CC2)=C(c2ccc(Cl)cc2)C1`: the pIC50 was < 5.00 and 5.12 and 5.27. Also, the viability, T/C (compound 0.0316 µM) was 97.4% and 103% and 99.8%. Also, the viability, T/C (compound 0.1 µM) is 99.3% and 105% and 95.2%. Further, the viability, T/C (compound 0.316 µM) was 93.9% and 119% and 92.1%. The viability, T/C (compound 1 µM) was 98.4% and 99.1% and 101%. For the setting “compound 3.16 µM”, the viability, T/C is 85.5% and 109% and 84.2%.

With `CC1COCCN1c1cc(-c2ccnn2C)c2ccnc(-c3ccn[nH]3)c2n1` (configuration not stated), the pIC50 is 7.09 and 7.63. In addition, the viability, T/C (compound 0.00316 µM) was 96.9% and 95.5% and 78.2%. The viability, T/C (compound 0.01 µM) is 94.7% and 106% and 89.9%. Besides, where the note is “compound 0.0316 µM”, the viability, T/C was 126% and 103% and 38.2%. For the same compound, the viability, T/C (compound 0.316 µM) is 8.06% and 11.5% and 3.15%. Further, the viability, T/C (compound 1 µM) was 5.02% and 8.23% and 2.74%.

Regarding `CC1COCCN1c1cc(C2(S(C)(=N)=O)CC2)nc(-c2ccnc3[nH]ccc23)n1` (configuration not stated), the pIC50 is 5.35 and 5.62 and 6.11. The viability, T/C (compound 0.0316 µM) is 102% and 98.7% and 97.3%. Also, where the note is “compound 0.1 µM”, the viability, T/C was 98% and 103% and 99%. The viability, T/C (compound 0.316 µM) is 99.5% and 92% and 73%. The viability, T/C (compound 1 µM) is 106% and 89.6% and 47.1%. The viability, T/C (compound 3.16 µM) was 67.5% and 37.4% and 6.44%. Further, the viability, T/C (compound 10 µM) was 8.92% and 13.3% and 3.14%.

Consider `CCN(c1cc(-c2ccc(CN3CCOCC3)cc2)cc(C(=O)NCc2c(C)cc(C)[nH]c2=O)c1C)C1CCOCC1`, for which the pIC50 is less than 5.52. Further, for the setting “compound 0.00949 µM”, the viability, T/C was 107% and 112% and 86.8%. For the setting “compound 0.03 µM”, the viability, T/C was 99.7% and 104% and 85%. Further, the viability, T/C (compound 0.0949 µM) is 95.2% and 112% and 74.4%. In addition, the viability, T/C (compound 0.3 µM) was 98.2% and 109% and 93.8%. In addition, the viability, T/C (compound 0.949 µM) was 101% and 112% and 91.5%. Moreover, the viability, T/C (compound 3 µM) was 106% and 104% and 89.5%.

As for `CC[C@@]1(O)C(=O)OCc2c1cc1n(c2=O)Cc2cc3c(CN(C)C)c(O)ccc3nc2-1`, the pIC50 is < 7.00 and 7.71. Moreover, for the setting “compound 0.000316 µM”, the viability, T/C is 100% and 99.5% and 110%. Also, the viability, T/C (compound 0.001 µM) was 94.2% and 104% and 99.4%. Further, for the setting “compound 0.00316 µM”, the viability, T/C is 104% and 95.7% and 114%. The viability, T/C (compound 0.01 µM) is 118% and 68.7% and 119%. Moreover, the viability, T/C (compound 0.0316 µM) is 106% and 37% and 119%. For the same compound, the viability, T/C (compound 0.1 µM) was 65.8% and 19.4% and 111%.

`CCc1c2c(nc3ccc(O)cc13)-c1cc3c(c(=O)n1C2)COC(=O)[C@]3(O)CC`: the viability, T/C was 118% and 125% and 49.3% (compound 0.000949 µM); 111% and 144% and 37.7% (compound 0.003 µM); 70.2% and 115% and 18.8% (compound 0.00949 µM); 49.7% and 83% and 17.6% (compound 0.03 µM); 29.7% and 43.6% and 10.7% (compound 0.0949 µM); 15.3% and 26.9% and 7.34% (compound 0.3 µM).

Turning to `COc1cc(C2c3cc4c(cc3C(OC3OC5COC(C)OC5C(O)C3O)C3COC(=O)C23)OCO4)cc(OC)c1O` (configuration not stated), the viability, T/C is 97.2% and 86.2% and 92.7% (compound 0.0316 µM); 126% and 88.1% and 97.8% (compound 0.1 µM); 118% and 44.4% and 142% (compound 0.316 µM); 58.8% and 22.6% and 97.1% (compound 1 µM); 51.1% and 17.5% and 85.7% (compound 3.16 µM); 25.6% and 10% and 46.4% (compound 10 µM).

`COc1cc(Nc2ncc3c(n2)-c2ccc(Cl)cc2C(c2c(F)cccc2OC)=NC3)ccc1C(=O)O`: the viability, T/C is, setting by setting: (compound 0.0316 µM) 95.8% and 121% and 27.3%; (compound 0.1 µM) 83.4% and 121% and 22.3%; (compound 0.316 µM) 74.4% and 119% and 20.1%; (compound 1 µM) 69.7% and 114% and 18.9%; (compound 3.16 µM) 79.1% and 117% and 22.9%; (compound 10 µM) 81.5% and 123% and 25.9%.

Take `COc1cccc2c1C(=O)c1c(O)c3c(c(O)c1C2=O)CC(O)(C(=O)CO)CC3OC1CC(N)C(O)C(C)O1` (configuration not stated): the viability, T/C reads like this: (compound 0.0316 µM) 111% and 154% and 44.9%; (compound 0.1 µM) 74.9% and 144% and 30.5%; (compound 1 µM) 0.9% and 5.52% and 0.26%; (compound 3.16 µM) 0.36% and 0.59% and 0.22%; (compound 10 µM) 0.28% and 1.4% and 0.25%.
